This is an account of results in patent US7390923B2, “Propionamide derivatives useful as androgen receptor modulators” (Orion Corporation, priority 2003, dated 2008).

The assay concerns the target T1, androgen receptor (AR) (Rattus norvegicus, UniProt P15207).
T1 construct: Ventral prostates were obtained form rats castrated 24 h prior to sacrifice; from tissue; host or cells: rat ventral prostate cytosol (castrated rats, charcoal-treated)
T1 sequence (P15207 1-902): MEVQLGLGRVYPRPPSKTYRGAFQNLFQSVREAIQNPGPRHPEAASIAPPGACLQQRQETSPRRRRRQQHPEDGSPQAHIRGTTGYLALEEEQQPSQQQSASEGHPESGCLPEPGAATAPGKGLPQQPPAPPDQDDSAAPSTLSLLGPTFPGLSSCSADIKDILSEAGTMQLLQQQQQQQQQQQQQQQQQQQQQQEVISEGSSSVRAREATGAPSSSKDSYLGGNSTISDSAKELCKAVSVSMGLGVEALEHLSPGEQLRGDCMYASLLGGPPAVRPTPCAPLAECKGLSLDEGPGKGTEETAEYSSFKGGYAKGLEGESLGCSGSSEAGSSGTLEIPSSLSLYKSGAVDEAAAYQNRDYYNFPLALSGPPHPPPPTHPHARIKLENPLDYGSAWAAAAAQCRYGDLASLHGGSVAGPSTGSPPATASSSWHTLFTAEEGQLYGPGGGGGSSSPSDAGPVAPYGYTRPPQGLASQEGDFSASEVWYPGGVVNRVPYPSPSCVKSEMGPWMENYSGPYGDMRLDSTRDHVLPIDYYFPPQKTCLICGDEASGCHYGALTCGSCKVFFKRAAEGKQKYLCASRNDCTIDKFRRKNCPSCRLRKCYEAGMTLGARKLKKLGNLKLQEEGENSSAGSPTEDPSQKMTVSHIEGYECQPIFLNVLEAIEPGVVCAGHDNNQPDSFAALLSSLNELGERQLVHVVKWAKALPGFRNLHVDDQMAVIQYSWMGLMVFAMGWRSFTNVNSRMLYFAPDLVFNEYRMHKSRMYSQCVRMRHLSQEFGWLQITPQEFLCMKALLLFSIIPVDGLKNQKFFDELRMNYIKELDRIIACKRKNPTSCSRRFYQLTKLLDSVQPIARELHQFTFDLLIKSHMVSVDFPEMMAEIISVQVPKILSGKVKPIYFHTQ
The assay can be described thus: AR binding assay, competition with [3H]-mibolerone binding in rat ventral prostate cytosol. The note with it: 1 nM [3H]-mibolerone, overnight at 0° C.; for inhibition at 0.2 µM / Inhibition (%) of [3H]-mibolerone binding at 0.2 μM: test compound 0.2 μM; for inhibition at 2 µM / Inhibition (%) of [3H]-mibolerone binding at 2.0 μM: test compound 2.0 μM. The protocol:
Ventral prostates were obtained form rats castrated 24 h prior to sacrifice. Fresh prostate was minced and washed with Buffer A (Schilling and Liao, Prostate, 5:581-588, 1984). The minces were then homogenized in 3× volume of Buffer A containing protease inhibitors (Complete, Mini, EDTA-free Roche). The homogenate was centrifuged at 30000 g for 30 min. The resultant supernatants were treated with 1×volume of dextran-coated charcoal solution (12.5 g activated charcoal, 12.5 g dextran per liter of buffer A) to remove endogenous steroids. The samples were incubated for 5 min and centrifuged at 16000 g for 10 min. Aliquots of the charcoal-treated cytosol were taken for androgen receptor assays. All procedures were carried out at 0-4° C.
Cytosol androgen receptor concentration was determined as described (Isomaa et al., Endocrinology, 111: 833-843, 1982) with minor modifications. Cytosol preparations were prepared as described above, and bound and free steroids were separated by treatment with an equal volume of dextran-charcoal suspension for 5 min at 4° C. followed by centrifugation at 16000 g for 10 min. Bound radioactivity was determined by counting supernatant fractions in 1 ml of OptiPhase HiSafe3 or OptiPhase Supermix (PerkinElmer).
Cytosol preparations were labelled with 1 nM [^3H]-mibolerone overnight at 0° C. (total). To determine AR binding activity of the compounds of the present invention (test compounds), the ability of test compounds to compete with [^3H]7α,17α-dimethyl-17β-hydroxy-4-estren-3-one ([^3H]-mibolerone) binding was studied. 1 nM [^3H]-mibolerone and test compounds in two concentrations (0.2 and 2 uM) were incubated overnight at 0° C. To determine non-specific binding, parallel incubations were carried out using 1 nM concentration [^3H]-mibolerone with 500-fold molar excess of unlabelled testosterone. Two to four replicates were used for each sample. After incubation, bound and free steroids were separated as described above and bound radioactivity was determined. The ability of the test compounds to bind AR is reported as reduction in bound radioactivity obtained with 1 nM [^3H]-mibolerone. The results (% inhibition) were calculated as: % inhibition=100−(100×(averagetest compound/averagetotal)).

Molecules are shown by their SMILES.

Take `Cc1cc(NC(=O)C(C)(O)COc2ccc3c(c2)OCO3)ccc1[N+](=O)[O-]` (centres unmarked) [Example 26, 3-(Benzo[1,3]dioxol-5-yloxy)-2-hydroxy-2-methyl-N-(3-methyl-4-nitrophenyl)propionamide]: the inhibition – broadly, the relative decrease from the control value, in per cent – at 0.2 µM was found to be 62% and the inhibition at 2 µM is 92%.
`COc1ccc(OCC(C)(O)C(=O)Nc2ccc([N+](=O)[O-])c(C)c2)cc1OC` (centres unmarked) [Example 27, 3-(3,4-Dimethoxyphenoxy)-2-hydroxy-2-methyl-N-(3-methyl-4-nitrophenyl)propionamide]: the inhibition at 0.2 µM was found to be 34% and the inhibition at 2 µM turned out to be 89%.
As for `Cc1cc(NC(=O)C(C)(O)COc2ccc(F)c(F)c2)ccc1[N+](=O)[O-]` (centres unmarked) [Example 28, 3-(3,4-Difluorophenoxy)-2-hydroxy-2-methyl-N-(3-methyl-4-nitrophenyl)propionamide], the inhibition at 0.2 µM is 90% and the inhibition at 2 µM was determined as 88%.
For `Cc1cc(NC(=O)C(C)(O)COc2cc(C)c(Cl)c(C)c2Cl)ccc1[N+](=O)[O-]` (centres unmarked) [Example 29, 3-(2,4-Dichloro-3,5-dimethylphenoxy)-2-hydroxy-2-methyl-N-(3-methyl-4-nitrophenyl)propionamide], in that order: 92% and 90%.
On to `Cc1cc(NC(=O)C(C)(O)COc2ccc3cc(Br)ccc3c2)ccc1[N+](=O)[O-]` (centres unmarked) [Example 30, 3-(6-Bromonaphtalen-2-yloxy)-2-hydroxy-2-methyl-N-(3-methyl-4-nitrophenyl)-propionamide], for which the “Inhibition (%) of [3H]-mibolerone binding at 0.2 μM” value turned out to be 80% and the “Inhibition (%) of [3H]-mibolerone binding at 2.0 μM” value was 99%.
Regarding `CC(=O)Nc1ccc(OCC(C)(O)C(=O)Nc2ccc([N+](=O)[O-])c(C)c2)cc1C(F)(F)F` (centres unmarked) [Example 31, 3-(4-Acetylamino-3-trifluoromethylphenoxy)-2-hydroxy-2-methyl-N-(3-methyl-4-nitrophenyl)propionamide], the inhibition at 0.2 µM was 18% and the inhibition at 2 µM was 75%.
`Cc1cc(NC(=O)C(C)(O)COc2ccc(C(=O)c3ccc(Cl)cc3)cc2)ccc1[N+](=O)[O-]` (centres unmarked) [Example 36, 3-[4-(4-Chlorobenzoyl)phenoxy]-2-hydroxy-2-methyl-N-(3-methyl-4-nitrophenyl)propionamide]: the inhibition at 0.2 µM came to 3% and the inhibition at 2 µM came to 50%.
For `Cc1cc(NC(=O)C(C)(O)COc2ccc(C#N)c(F)c2)ccc1[N+](=O)[O-]` (centres unmarked) [Example 42, 3-(4-Cyano-3-fluorophenoxy)-2-hydroxy-2-methyl-N-(3-methyl-4-nitrophenyl)propionamide], in that order: 83% and 97%.
The like results for `Cc1cc(NC(=O)[C@@](C)(O)COc2ccc(C#N)c(F)c2)ccc1[N+](=O)[O-]` [Example 43, (2S)-3-(4-Cyano-3-fluorophenoxy)-2-hydroxy-2-methyl-N-(3-methyl-4-nitrophenyl)propionamide] were, in that order, 95% and 99%.
Take `Cc1cc(NC(=O)C(C)(O)COc2ccc(Cl)c([N+](=O)[O-])c2)ccc1[N+](=O)[O-]` (centres unmarked) [Example 44, 3-(4-Chloro-3-nitrophenoxy)-2-hydroxy-2-methyl-N-(3-methyl-4-nitrophenyl)propionamide]: the inhibition at 0.2 µM turned out to be 83% and the inhibition at 2 µM was found to be 100%.
For the molecule `CCOC(=O)Nc1ccc(OCC(C)(O)C(=O)Nc2ccc([N+](=O)[O-])c(C)c2)cc1F` (centres unmarked) [Example 50, {2-Fluoro-4-[2-hydroxy-2-(3-methyl-4-nitrophenylcarbamoyl)propoxy]-phenyl}carbamic acid ethyl ester], the inhibition at 0.2 µM stood at 96% and the inhibition at 2 µM amounted to 99%.
Take `CC(O)(COc1ccc(C#N)c(F)c1)C(=O)Nc1ccc([N+](=O)[O-])c(CO)c1` (centres unmarked) [Example 51, 3-(4-Cyano-3-fluorophenoxy)-2-hydroxy-N-(3-hydroxymethyl-4-nitrophenyl)-2-methylpropionamide]: the inhibition at 0.2 µM came to 73% and the inhibition at 2 µM is 92%.
For `Cc1cc(NC(=O)C(C)(O)CNc2ccc(F)cc2)ccc1[N+](=O)[O-]` (centres unmarked) [Example 52, 3-(4-Fluorophenylamino)-2-hydroxy-2-methyl-N-(3-methyl-4-nitrophenyl)propionamide], the inhibition at 0.2 µM came to 90% and the inhibition at 2 µM came out at 115%.
For `Cc1cc(NC(=O)C(C)(O)CNc2ccc(C#N)cc2)ccc1[N+](=O)[O-]` (centres unmarked) [Example 55, 3-(4-Cyanophenylamino)-2-hydroxy-2-methyl-N-(3-methyl-4-nitrophenyl)propionamide], in that order: 87% and 99%.
For `Cc1cc(NC(=O)C(C)(O)CNc2ccc(C#N)c(Cl)c2)ccc1[N+](=O)[O-]` (centres unmarked) [Example 56, 3-(3-Chloro-4-cyanophenylamino)-2-hydroxy-2-methyl-N-(3-methyl-4-nitrophenyl)propionamide], in that order: 90% and 95%.
Take `Cc1cc(NC(=O)C(C)(O)COc2ccncc2)ccc1[N+](=O)[O-]` (centres unmarked) [Example 58, 2-Hydroxy-2-methyl-N-(3-methyl-4-nitrophenyl)-3-(pyridin-4-yloxo)propionamide]: the “Inhibition (%) of [3H]-mibolerone binding at 0.2 μM” value was 84% and the “Inhibition (%) of [3H]-mibolerone binding at 2.0 μM” value came out at 93%.
Regarding `Cc1cc(NC(=O)C(C)(O)COc2ccc(C#N)c(Cl)c2)ccc1[N+](=O)[O-]` (centres unmarked) [Example 63, 3-(3-Chloro-4-cyanophenoxy)-2-hydroxy-2-methyl-N-(3-methyl-4-nitrophenyl)propionamide], the inhibition at 0.2 µM worked out at 92% and the inhibition at 2 µM is 98%.
For `Cc1cc([N+](=O)[O-])ccc1NC(=O)C(C)(O)COc1ccc(C#N)c(F)c1` (centres unmarked) [Example 64, 3-(4-Cyano-3-fluorophenoxy)-2-hydroxy-2-methyl-N-(2-methyl-4-nitrophenyl)propionamide], in that order: 79% and 89%.
The like results for `CC(O)(COc1ccc(C#N)c(F)c1)C(=O)Nc1ccc([N+](=O)[O-])c(C=O)c1` (centres unmarked) [Example 66, 3-(4-Cyano-3-fluorophenoxy)-N-(3-formyl-4-nitrophenyl)-2-hydroxy-2-methylpropionamide] were, in that order, 69% and 93%.
Regarding `Cc1cc(NC(=O)C(C)(O)COc2ccc(CCCCl)cc2)ccc1[N+](=O)[O-]` (centres unmarked) [Example 79, 3-[4-(3-Chloropropyl)phenoxy]-2-hydroxy-2-methyl-N-(3-methyl-4-nitrophenyl)propionamide], the inhibition at 0.2 µM is 89% and the inhibition at 2 µM was found to be 98%.
For `Cc1cc(NC(=O)C(C)(O)COc2ccc(OCCCl)cc2)ccc1[N+](=O)[O-]` (centres unmarked) [Example 80, 3-[4-(2-Chloroethoxy)phenoxy]-2-hydroxy-2-methyl-N-(3-methyl-4-nitrophenyl)propionamide], the inhibition at 0.2 µM is 87% and the inhibition at 2 µM came out at 99%.
For the molecule `COCc1ccc(OCC(C)(O)C(=O)Nc2ccc([N+](=O)[O-])c(C)c2)cc1` (centres unmarked) [Example 81, 2-Hydroxy-3-(4-methoxymethylphenoxy)-2-methyl-N-(3-methyl-4-nitrophenyl)propionamide], the inhibition at 0.2 µM was determined as 85% and the inhibition at 2 µM was determined as 98%.
